Results as given in patent publication US20090004166A1, “Carrier For Enternal Administration” (priority 2004, published 2009).

System: Sprague-Dawley rats
Conditions: oral gavage, 5 mg/kg, heat source ~45° C.
Experimental: The effect was measured by comparison of times taken for a rat to withdraw its paw in response to heat when medicated and unmedicated with morphine.
Animals: Nine conscious Sprague-Dawley rats weighing between 350-450 grams each Treatment groups: • 1. […] Morphine with TPm: morphine HCl (14%) in a carrier containing water (59%) and a tocopheryl phosphate mixture (27%) (TPm). The TPm contained mono-tocopheryl phosphate and di-tocopheryl phosphate.
Formulations 2 and 3 were diluted with water and the final morphine concentration was made up to 5 mg/ml. […] This liquid formulation was then delivered to the animals by oral gavage (tube into stomach).
The experiment used nine rats that were divided into three groups. […]
Analgesic testing was performed at 1, 2, 4 and 6 hours and at each time point withdrawal latency was measured three times on each rat (with at least five minutes rest if using the same paw).
A plantar analgesiometer designed for rapid and efficient screening of analgesia levels in small laboratory animals was used. The device applied a heat source (˜45° C. from an infrared light) to the animal's hindpaw and the time taken to withdraw the paw from the heat source was measured (paw withdrawal latency). […] The animal was placed on a hot plate, confined by a clear acrylic cage which surrounds the plate and paw withdrawal response was monitored. […]

CN1CC[C@]23c4c5ccc(O)c4O[C@H]2[C@@H](O)C=C[C@H]3[C@H]1C5.O=S(=O)(O)O [morphine sulphate]
paw withdrawal latency (analgesia): increase in latency
